According to patent US9724397B2, “Sustained release formulations comprising very low molecular weight polymers” (IPSEN PHARMA S.A.S., priority 2006, dated 2017):

Experiment: In-vivo release assay in Beagle dogs with a VLMW polymer not end-capped
Details: 10% BIM21003 in PLGA 50/50 ended by carboxylic acid group (J001/3000013), intramuscular, about 3.6 mg per animal, RIA
Protocol: An in-vivo assay was performed with a semi-solid formulation of 10% BIM21003 using a PLGA 50/50 ended by a carboxylic acid group (J001/3000013 batch, see table 1). The preparation of the formulation was achieved by a push-pull kneading process with 2 syringes at about 50° C. as described in example 6. The mixture (bulk product) was conditioned in a 0.3 ml single-dose syringes coupled with 20×1.4 mm needles thereafter packed in individual aluminium sealed bags, and sterilized by gamma-irradiation at 25 kGy in dry ice.
Six male Beagle dogs were administered intramuscularly with single-dose syringes previously heated at 50° C. for 3 min in order to improve its fluidity and facilitate its injection. Syringes were weighted before and after administration, and the injected dose of BIM21003 was calculated to be about 3.6 mg per animal.
Four-ml blood samples were obtained from cephalic veins at specified time intervals post-administration. The blood samples were placed in tubes containing an anticoagulant (15% EDTA.K3 aqueous solution) and a preservative (Trasylol®). After centrifugation, plasma was removed and samples were stored below −20° C. until RIA analysis.

BIM-21003 plasma levels after 3 days post-administration: below the limit of quantification
SMILES: CC(C)C[C@H](NC(=O)[C@@H](Cc1c[nH]c2ccccc12)NC(=O)[C@H](Cc1ccc(O)cc1)NC(=O)[C@H](CO)NC(=O)[C@H](Cc1c[nH]c2ccccc12)NC(=O)[C@H](Cc1c[nH]cn1)NC(=O)[C@@H]1CCC(=O)N1)C(=O)N[C@@H](CCCNC(=N)N)C(=O)N1CCC[C@H]1C(=O)NCC(N)=O [BIM-21003, triptorelin]
